Results as given in patent US6727232B2, “Nucleoside peptide antibiotics of AA-896” (Wyeth Holdings Corporation, priority 2001, dated 2004).
≈ marks a conversion by molar mass, not a printed value. Where two headings read alike, the source gives them in different places.

How the values were obtained:
Assay in all cases: Broth dilution MIC
Format in all cases: cell-based
[1] = test system: CNS GC 4537; conditions: read-out: Antimicrobial Activity (MIC)
Procedure: (§1) The in vitro antibacterial activity of Example 1 through Example 20 is determined against a spectrum of Gram-positive and Gram-negative bacteria by a standard broth dilution method. Serial dilution of the compounds are made in Mueller-Hinton broth and inoculated with a bacterial suspension. The lowest concentration of compound that inhibited the growth of a bacterial strain after 18 hours of incubation at 35° C. is reported as the minimal inhibitory concentration (MIC) for that strain.

[2] = test system: CNS GC 4538; conditions: read-out: Antimicrobial Activity (MIC)
Procedure: as §1

[3] = test system: CNS GC 4547; conditions: read-out: Antimicrobial Activity (MIC)
Procedure: as §1

[4] = test system: E. cloacae GC 3783; conditions: Enterobacter cloacae, read-out: Antimicrobial Activity (MIC)
Procedure: as §1

[5] = test system: E. coli GC 2203; conditions: Escherichia coli, read-out: Antimicrobial Activity (MIC)
Procedure: as §1

[6] = test system: E. coli GC 3226; conditions: Escherichia coli, read-out: Antimicrobial Activity (MIC)
Procedure: as §1

[7] = test system: E. coli GC 4559; conditions: Escherichia coli, read-out: Antimicrobial Activity (MIC)
Procedure: as §1

[8] = test system: E. coli GC 4560; conditions: Escherichia coli, read-out: Antimicrobial Activity (MIC)
Procedure: as §1

[9] = test system: E. faecalis GC 2242; conditions: Enterococcus faecalis, read-out: Antimicrobial Activity (MIC)
Procedure: as §1

[10] = test system: E. faecalis GC 4555; conditions: Enterococcus faecalis, read-out: Antimicrobial Activity (MIC)
Procedure: as §1

[11] = test system: E. faecalis GC 842; conditions: Enterococcus faecalis, read-out: Antimicrobial Activity (MIC)
Procedure: as §1

[12] = test system: K. pneumoniae GC 4534; conditions: Klebsiella pneumoniae, read-out: Antimicrobial Activity (MIC)
Procedure: as §1

[13] = test system: M. morganii GC 4531; conditions: Morganella morganii, read-out: Antimicrobial Activity (MIC)
Procedure: as §1

[14] = test system: P. aeruginosa GC 2214; conditions: Pseudomonas aeruginosa, read-out: Antimicrobial Activity (MIC)
Procedure: as §1

[15] = test system: P. aeruginosa GC 4532; conditions: Pseudomonas aeruginosa, read-out: Antimicrobial Activity (MIC)
Procedure: as §1

[16] = test system: P. rettgeri GC 4530; conditions: Providencia rettgeri, read-out: Antimicrobial Activity (MIC)
Procedure: as §1

[17] = test system: S. aureus GC 1131; conditions: Staphylococcus aureus, read-out: Antimicrobial Activity (MIC)
Procedure: as §1

[18] = test system: S. aureus GC 2216; conditions: Staphylococcus aureus, read-out: Antimicrobial Activity (MIC)
Procedure: as §1

[19] = test system: S. aureus GC 4536; conditions: Staphylococcus aureus, read-out: Antimicrobial Activity (MIC)
Procedure: as §1

[20] = test system: S. marcescens GC 4077; conditions: Serratia marcescens, read-out: Antimicrobial Activity (MIC)
Procedure: as §1

[21] = CNS GC 4537, Mueller-Hinton broth, 18 hours at 35° C.
[22] = CNS GC 4538, Mueller-Hinton broth, 18 hours at 35° C.
[23] = CNS GC 4547, Mueller-Hinton broth, 18 hours at 35° C.
[24] = GC3783, E. cloacae GC 3783, Mueller-Hinton broth, 18 hours at 35° C.
[25] = GC2203, E. coli GC 2203, Mueller-Hinton broth, 18 hours at 35° C.
[26] = GC3226, E. coli GC 3226, Mueller-Hinton broth, 18 hours at 35° C.
[27] = GC4559, E. coli GC 4559, Mueller-Hinton broth, 18 hours at 35° C.
[28] = GC2242, E. faecalis GC 2242, Mueller-Hinton broth, 18 hours at 35° C.
[29] = GC4555, E. faecalis GC 4555, Mueller-Hinton broth, 18 hours at 35° C.
[30] = GC842, E. faecalis GC 842, Mueller-Hinton broth, 18 hours at 35° C.
[31] = GC4534, K. pneumoniae GC 4534, Mueller-Hinton broth, 18 hours at 35° C.
[32] = GC4531, M. morganii GC 4531, Mueller-Hinton broth, 18 hours at 35° C.
[33] = GC2214, P. aeruginosa GC 2214, Mueller-Hinton broth, 18 hours at 35° C.
[34] = GC4532, P. aeruginosa GC 4532, Mueller-Hinton broth, 18 hours at 35° C.
[35] = GC4530, P. rettgeri GC 4530, Mueller-Hinton broth, 18 hours at 35° C.
[36] = GC1131, S. aureus GC 1131, Mueller-Hinton broth, 18 hours at 35° C.
[37] = GC2216, S. aureus GC 2216, Mueller-Hinton broth, 18 hours at 35° C.
[38] = GC4536, S. aureus GC 4536, Mueller-Hinton broth, 18 hours at 35° C.
[39] = GC4077, S. marcescens GC 4077, Mueller-Hinton broth, 18 hours at 35° C.

Structure (SMILES)	MIC [1, 21] [µg/mL]	MIC [2, 22] [µg/mL]	MIC [3, 23] [µg/mL]	MIC [4, 24] [µg/mL]	MIC [5, 25] [µg/mL]	MIC [6, 26] [µg/mL]	MIC [7, 27] [µg/mL]	MIC ([8]; GC4560, 18 h) [µg/mL]	MIC [9, 28] [µg/mL]	MIC [10, 29] [µg/mL]	MIC [11, 30] [µg/mL]	MIC [12, 31] [µg/mL]	MIC [13, 32] [µg/mL]	MIC [14, 33] [µg/mL]	MIC [15, 34] [µg/mL]	MIC [16, 35] [µg/mL]	MIC [17, 36] [µg/mL]	MIC [18, 37] [µg/mL]	MIC [19, 38] [µg/mL]	MIC [20, 39] [µg/mL]	other results
COc1ccc(N2C(=O)C([C@@H](OC3O[C@H](CN)[C@H](O)[C@H]3OC)[C@H]3O[C@@H](n4ccc(=O)[nH]c4=O)[C@H](O)[C@@H]3O)N(CCCNC(=O)C(NC(=O)C(NC(=O)NC(C(=O)O)C(C)C)C3CCNC(=N)N3)C(O)C(C)C)C2=O)cc1 (stereo partly drawn) [Example 4, 14-[5-((R)-{[(3R,4S,5R)-5-(Aminomethyl)-4-hydroxy-3-methoxytetrahydro-2-furanyl]oxy}{(2S,3S,4R,5R)-5-[2,4-dioxo-3,4-dihydro-1 (2H)-pyrimidinyl]-3,4-dihydroxytetrahydro-2-furanyl}methyl)-3-(4-methoxyphenyl)-2,4-dioxo-1-imidazolidinyl]-9-(1-hydroxy-2-methylpropyl)-6-(2-iminohexahydro-4-pyrimidinyl)-2-isopropyl-4,7,10-trioxo-3,5,8,11-tetraazatetradecan-1-oic acid]	> 32	> 32	> 32	> 32	> 32	> 32	> 32	> 32	> 32	> 32	> 32	> 32	> 32	> 32	> 32	> 32	> 32	> 32	> 32	> 32	–
CCCCCCCCCCCCCCCCNC(=O)NC[C@H]1OC(O[C@H](C(NCCCNC(=O)C(NC(=O)C(NC(=O)NC(C(=O)O)C(C)C)C2CCNC(=N)N2)C(O)C(C)C)C(=O)O)[C@H]2O[C@@H](n3ccc(=O)[nH]c3=O)[C@H](O)[C@@H]2O)[C@H](OC)[C@H]1O (stereo partly drawn) [Example 16, 16-((R)-{(2S,3S,4R,5R)-5-[2,4-Dioxo-3,4-dihydro-1 (2H)-pyrimidinyl]-3,4-dihydroxytetrahydro-2-furanyl}{[(3R,4S,5R)-5-({[(hexadecylamino)carbonyl]amino}methyl)-4-hydroxy-3-methoxytetrahydro-2-furanyl]oxy}methyl)-9-(1-hydroxy-2-methylpropyl)-6-(2-iminohexahydro-4-pyrimidinyl)-2-isopropyl-4,7,10-trioxo-3,5,8,11,15-pentaazaheptadecane-1,17-dioic Acid]	> 32	> 32	> 32	> 32	> 32	> 32	> 32	> 32	> 32	> 32	> 32	> 32	> 32	> 32	> 32	> 32	> 32	> 32	> 32	> 32	–
CO[C@H]1C(O[C@H](C2C(=O)N(c3ccc(F)cc3)C(=O)N2CCCNC(=O)C(NC(=O)C(NC(=O)NC(C(=O)O)C(C)C)C2CCNC(=N)N2)C(O)C(C)C)[C@H]2O[C@@H](n3ccc(=O)[nH]c3=O)[C@H](O)[C@@H]2O)O[C@H](CN)[C@@H]1O (stereo partly drawn) [Example 1, 14-[5-((R)-{[(3R,4S,5R)-5-(Aminomethyl)-4-hydroxy-3-methoxytetrahydro-2-furanyl]oxy}{(2S,3S,4R,5R)-5-[2,4-dioxo-3,4-dihydro-1 (2H)-pyrimidinyl]-3,4-dihydroxytetrahydro-2-furanyl}methyl)-3-(4-fluorophenyl)-2,4-dioxo-1-imidazolidinyl]-9-(1-hydroxy-2-methylpropyl)-6-(2-iminohexahydro-4-pyrimidinyl)-2-isopropyl-4,7,10-trioxo-3,5,8,11-tetraazatetradecan-1-oic acid]	–	–	–	–	–	–	–	64 (≈ 60.1 µM)	–	–	–	–	–	–	–	–	–	–	–	–	MIC ([1]; 18 h): > 32 µg/mL; MIC ([2]; 18 h): 32 µg/mL (≈ 30 µM); MIC ([3]; 18 h): > 32 µg/mL; MIC ([4]; GC3783, 18 h): > 32 µg/mL; MIC ([5]; GC2203, 18 h): > 32 µg/mL; MIC ([6]; GC3226, 18 h): > 32 µg/mL; MIC ([7]; GC4559, 18 h): > 32 µg/mL; MIC ([9]; GC2242, 18 h): > 32 µg/mL; MIC ([10]; GC4555, 18 h): > 32 µg/mL; MIC ([11]; GC842, 18 h): > 32 µg/mL; MIC ([12]; GC4534, 18 h): > 32 µg/mL; MIC ([13]; GC4531, 18 h): > 32 µg/mL; MIC ([14]; GC2214, 18 h): > 32 µg/mL; MIC ([15]; GC4532, 18 h): > 32 µg/mL; MIC ([16]; GC4530, 18 h): > 32 µg/mL; MIC ([17]; GC1131, 18 h): > 32 µg/mL; MIC ([18]; GC2216, 18 h): > 32 µg/mL; MIC ([19]; GC4536, 18 h): > 32 µg/mL; MIC ([20]; GC4077, 18 h): > 32 µg/mL
COC1C(O[C@H](C2C(=O)N(c3ccc(F)cc3)C(=O)N2CCCNC(=O)C(NC(=O)C(NC(=O)NC(C(=O)O)C(C)C)C2CCNC(=N)N2)C(O)C(C)C)[C@H]2O[C@@H](n3ccc(=O)[nH]c3=O)C(O)C2O)O[C@H](CNC(=O)Nc2ccc(F)cc2)C1O (stereo partly drawn) [Example 12, 14-[5-((R)-{(2S,5R)-5-[2,4-Dioxo-3,4-dihydro-1 (2H)-pyrimidinyl]-3,4-dihydroxytetrahydro-2-furanyl}{[(5R)-4-hydroxy-3-methoxy-5-({[(4-fluoroanilino)carbonyl]amino}methyl)tetrahydro-2-furanyl]oxy}methyl)-3-(4-fluorophenyl)-2,4-dioxo-1-imidazolidinyl]-9-(1-hydroxy-2-methylpropyl)-6-(2-iminohexahydro-4-pyrimidinyl)-2-isopropyl-4,7,10-trioxo-3,5,8,11-tetraazatetradecan-1-oic Acid]	> 32	> 32	> 32	> 32	> 32	> 32	> 32	–	> 32	> 32	> 32	> 32	> 32	> 32	> 32	> 32	> 32	> 32	> 32	> 32	MIC ([8]; GC4560, E. coli GC 4560, Mueller-Hinton broth, 18 hours at 35° C.): > 32 µg/mL
